Where a SMILES comes first, the peptide text is derived from it. Where no end group is shown, it is not given here. [ ]: non-standard residue; d: D form. The star is where a group is joined. Hexanoyl = CCCCCC(=O)*; Aib = CC(C)(N)C(=O)O
Assays:
[1] = target: T1, human PAC1 (Homo sapiens, UniProt P41586); assay: Filter binding assay, membranes of cells transiently transfected with human PAC1, 125I-labeled PACAP-27 tracer (Table 2); parameters: expressed in transfected cells; conditions: read-out: Human PAC1 Receptor Binding
T1 sequence (P41586 21-468): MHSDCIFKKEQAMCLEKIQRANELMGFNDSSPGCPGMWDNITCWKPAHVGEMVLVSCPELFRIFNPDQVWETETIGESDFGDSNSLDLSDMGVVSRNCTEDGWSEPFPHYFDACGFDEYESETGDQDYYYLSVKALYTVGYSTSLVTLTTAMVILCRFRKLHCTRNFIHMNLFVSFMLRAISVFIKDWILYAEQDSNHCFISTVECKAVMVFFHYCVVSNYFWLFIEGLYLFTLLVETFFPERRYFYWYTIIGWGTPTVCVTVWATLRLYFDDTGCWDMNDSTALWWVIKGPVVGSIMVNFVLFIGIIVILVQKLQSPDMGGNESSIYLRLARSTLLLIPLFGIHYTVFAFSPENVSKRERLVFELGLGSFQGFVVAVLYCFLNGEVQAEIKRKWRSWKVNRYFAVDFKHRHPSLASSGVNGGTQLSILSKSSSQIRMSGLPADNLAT
In short: (§1)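 Radioligand displacement was measured with 2.5 μg membrane protein per well and roughly 40000 cpm of iodinated tracer. After a 1-hour incubation, bound and free label were separated on BSA-blocked glass-fibre filters and quantified by scintillation.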

[2] = target: T2, human VPAC2 (Homo sapiens, UniProt P41587); assay: Alpha screen cAMP in vitro potency, human VPAC2 receptor; assay type: cell-based; conditions: cAMP generation; single result from two analyses performed in a single run; read-out: Human VPAC2 Receptor: Alpha Screen EC50
T2 construct: expressed in transfected cells
T2 sequence (P41587 24-438): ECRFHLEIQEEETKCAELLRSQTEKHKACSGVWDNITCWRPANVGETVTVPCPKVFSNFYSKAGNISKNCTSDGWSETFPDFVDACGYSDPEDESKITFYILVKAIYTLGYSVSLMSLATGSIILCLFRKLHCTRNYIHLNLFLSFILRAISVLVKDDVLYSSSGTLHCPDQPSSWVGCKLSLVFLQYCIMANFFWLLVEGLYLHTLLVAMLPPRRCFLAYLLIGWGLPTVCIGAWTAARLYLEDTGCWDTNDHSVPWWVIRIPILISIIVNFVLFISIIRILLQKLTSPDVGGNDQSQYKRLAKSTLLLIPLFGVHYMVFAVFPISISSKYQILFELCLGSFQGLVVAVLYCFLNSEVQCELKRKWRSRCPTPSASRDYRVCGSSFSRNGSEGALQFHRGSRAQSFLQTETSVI
In short: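 This followed a 60 min stimulation of 50,000 enzyme-free-dissociated cells per point with acceptor beads in stimulation buffer.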

[3] = target: T2, human VPAC2; assay: Filter binding assay, membranes of stable VPAC2 cell line, 125I-labeled VIP tracer (Table 2); conditions: read-out: Human VPAC2 Receptor Binding
In short: as §1

[4] = Rat serum stability studies (remaining active peptide by DiscoveRx cAMP on CHO-VPAC2 cells); assay type: in vitro ADME
In short: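 EC50 from a DiscoveRx cAMP read-out on CHO-VPAC2 cells indexes how much peptide stays active after 18 h in rat serum at 37° C without aprotinin, against an aprotinin-protected 4° C aliquot.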

[5] = target: T3, human VPAC1 (Homo sapiens, UniProt P32241); assay: Filter binding assay, membranes of cells transiently transfected with human VPAC1, 125I-labeled VIP tracer (Table 2); parameters: expressed in transfected cells; conditions: read-out: Human VPAC1 Receptor Binding
T3 sequence (P32241 31-457): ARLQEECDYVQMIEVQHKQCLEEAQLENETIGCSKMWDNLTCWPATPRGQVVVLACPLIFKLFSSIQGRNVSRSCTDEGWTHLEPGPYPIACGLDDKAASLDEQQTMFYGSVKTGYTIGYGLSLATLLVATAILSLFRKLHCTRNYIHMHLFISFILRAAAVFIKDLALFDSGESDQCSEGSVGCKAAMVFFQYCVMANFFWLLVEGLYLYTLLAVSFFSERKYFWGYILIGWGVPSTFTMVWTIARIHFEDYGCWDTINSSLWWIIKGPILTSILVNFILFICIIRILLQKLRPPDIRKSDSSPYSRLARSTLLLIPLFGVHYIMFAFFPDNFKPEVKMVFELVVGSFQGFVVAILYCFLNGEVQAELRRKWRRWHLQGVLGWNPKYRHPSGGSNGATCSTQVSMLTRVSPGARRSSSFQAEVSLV
In short: as §1

Compound	IC50 [1]	EC50 [2]	IC50 [3]	Rat Serum Stability (estimated purity in % after 18 hours) [4]	IC50 [5]
Hexanoyl-HSDAVFTDNYTRLQKQVAAQKYLQSIKNKRYGGPSSGAPPPS [Agonist P252]	> 25000 nM	0.26 nM	0.98 nM	1.19%	1180 nM
Hexanoyl-HSDAVFTDNYTRLRKQVAAKKYLQSFKNKRYGGPSSGAPPPS [Agonist P106]	1820 nM	0.16 nM	0.22 nM	0.11%	118 nM
Hexanoyl-HSDAVFTDNYTRLRK(Ac)QVAAKK(Ac)YLQSIKNKRYGGPSSGAPPPS [Agonist P194]	626 nM	0.13 nM	0.28 nM	1.11%	173 nM
Hexanoyl-HSDAVFTDNYTRLRAQVAAKKYLQSIKNKRYGGPSSGAPPPS [Agonist P139]	> 25000 nM	0.2 nM	0.34 nM	0.33%	235 nM
Hexanoyl-HSDAVFTEEYTRLQKQVAAKQYLQSIKNKRYGGPSSGAPPPS [Agonist P165]	2860 nM	0.94 nM	18.4 nM	7.28%	486 nM
CCCCCC(=O)N[C@@H](Cc1c[nH]cn1)C(=O)N[C@@H](CO)C(=O)N[C@@H](CC(=O)O)C(=O)N[C@@H](C)C(=O)N[C@H](C(=O)N[C@@H](Cc1ccccc1)C(=O)N[C@H](C(=O)N[C@@H](CC(=O)O)C(=O)N[C@@H](CC(N)=O)C(=O)N[C@@H](Cc1ccc(O)cc1)C(=O)N[C@H](C(=O)N[C@@H](CCCNC(=N)N)C(=O)N[C@@H](CC(C)C)C(=O)N[C@@H](CCCNC(=N)N)C(=O)NC(C)(C)C(=O)N[C@@H](CCC(N)=O)C(=O)N[C@H](C(=O)N[C@@H](C)C(=O)N[C@@H](C)C(=O)NC(C)(C)C(=O)N[C@@H](CCCCN)C(=O)N[C@@H](Cc1ccc(O)cc1)C(=O)N[C@@H](CC(C)C)C(=O)N[C@@H](CCC(N)=O)C(=O)N[C@@H](CO)C(=O)N[C@H](C(=O)N[C@@H](CCCCN)C(=O)N[C@@H](CCC(N)=O)C(=O)NCC(=O)NCC(=O)N1CCC[C@H]1C(=O)N[C@@H](CO)C(=O)N[C@@H](CO)C(=O)NCC(=O)N[C@@H](C)C(=O)N1CCC[C@H]1C(=O)N1CCC[C@H]1C(=O)N1CCC[C@H]1C(=O)N[C@@H](CO)C(=O)O)[C@@H](C)CC)C(C)C)[C@@H](C)O)[C@@H](C)O)C(C)C [Agonist P297] (Hexanoyl-HSDAVFTDNYTRLR[Aib]QVAA[Aib]KYLQSIKQGGPSSGAPPPS-OH; C-terminus assumed)	> 25000 nM	0.36 nM	1.95 nM	21.17%	> 3000 nM
Hexanoyl-HSDAVFTDNYTRLRKQVAAAKYLQSIKNKRYGGPSSGAPPPS [Agonist P181]	522 nM	0.13 nM	0.29 nM	<0.53%	325 nM
Hexanoyl-HSDAVFTDNYTRLRKQVAAKQYLQSIKNKRYGGPSSGAPPPS [Agonist P183]	506 nM	0.14 nM	0.26 nM	0.18%	424 nM
Hexanoyl-HSDAVFTDNYTRLRKQVAAWKYLQSIKNKRYGGPSSGAPPPS [Agonist P153]	1130 nM	0.11 nM	0.7 nM	<0.16%	181 nM
Hexanoyl-HSDAVFTDNYTRLQKQVAAKQYLQSIKNKRYGGPSSGAPPPS [Agonist P253]	> 25000 nM	0.46 nM	1.78 nM	1.27%	2160 nM

Reference: patent US20080026996A1, “Selective Vpac2 Receptor Reptide Agonists” (ELI LILLY AND COMPANY, priority 2004, published 2008)
